We go through 17 compounds from patent US20100234377A1 (priority 2007, published 2010).

In general, IC50 refers to the concentration needed to halve the response being measured.

T1 sequence (O60760 whole entry): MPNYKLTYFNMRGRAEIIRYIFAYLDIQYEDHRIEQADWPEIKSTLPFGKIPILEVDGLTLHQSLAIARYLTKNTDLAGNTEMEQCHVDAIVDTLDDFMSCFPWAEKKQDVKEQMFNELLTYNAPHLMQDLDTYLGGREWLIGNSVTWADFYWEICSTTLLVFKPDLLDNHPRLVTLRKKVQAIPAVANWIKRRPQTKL

This test addresses T1, human Prostaglandin D Synthase (GST2) (Homo sapiens, UniProt O60760).
T1 construct: the open reading frame of human Prostaglandin D Synthase was amplified from cDNA; made in house; host or cells: E. coli TOP10F'
As to the kind of experiment: Homogeneous biochemical assay of human Prostaglandin D Synthase (GST2) based on its glutathion-S-transferase activity (GSH conjugation to monochlorobimane, fluorescence). The settings on record: given beside the compound name in Examples 1 to 167; read-out: Potency Range (GST2 IC50). The source says:
Homogeneous, Biochemical Assay Monitoring the Activity of Human Prostaglandin D Synthase Based on the Glutathion-S-Transferase Activity of the Enzyme
Prostaglandin D2 synthesis by Prostaglandin D synthase (GST2) requires transfer of Glutathion (GSH) to the substrate, Prostaglandin H2. […] Since the Prostaglandin D2 synthesis is absolutely dependent on the GST activity of the enzyme, assays monitoring the GST activity should allow to identify specific inhibitors of Prostaglandin D2 synthetic activity. The assay principle used is based on enzymatic conjugation of GSH to Monochlorobimane (MCB), that becomes fluorescent upon this chemical modification. Therefore, the enzymatic reaction can be monitored by total fluorescence measurement.
In brief, the open reading frame of human Prostaglandin D Synthase was amplified from cDNA using the primer pair:
This construct allows prokaryotic expression of Prostaglandin D Synthase as fusion protein with a N-terminal hexa-histidine tag, referred to as NHis-Prostaglandin D Synthase.
Expression of NHis-Prostaglandin D Synthase was in E. coli TOP10F′ (Invitrogen, Germany, cat. no. C3030-03). […] When the culture had reached a density corresponding to an A600 of 0.6, an equal volume of room temperature LB/ampicillin was added. […] Cells harvested by centrifugation were resuspended in 50 mM tris(hydroxymethyl)aminomethane hydrochloride pH 7.5 (Tris/HCl, Sigma, cat. no. T5941).
Removal of unbound material was with 100 ml lysis buffer. Elution was with 50 ml of 50 mM Tris/HCl pH 7.5, 300 mM imidazol (Sigma, Germany, cat. no. I2399)/HCl pH 7.5). […] Aliquots were shock frozen in liquid nitrogen and stored at −80° C.
All assay components were diluted in reaction buffer, 50 mM MES/KOH (pH 6.1), 0.7 mM GSH (Sigma, G4251), 2 mM MgCl2 (Sigma, M2670), 0.05% Pluronic F127 (Sigma, P2443), and stored on ice prior to use. Compounds were diluted in 90% DMSO yielding final assay concentrations from the picomolar to three digit micromolar range.
Total fluorescent measurement was carried out with excitation and emission wavelength of 390 and 460 nm, respectively (BMG Fluostar Optima).
Regarding “4-(3-Fluoro-benzoyl)-piperazine-1-carboxylic acid [4-(2-methyl-thiazol-3-yl)-phenyl]-amide [Compound 29]”, the IC50 lay within 11 to 100 nM. On to `CC(C)(C)c1ccc(NC(=S)N2CCN(C(=O)c3ccccc3)CC2)cc1` [Compound 1, 4-Benzoyl-piperazine-1-carbothioic acid (4-tert-butyl-phenyl)-amide], for which the IC50 lay in the range of 1 to 10 nM. Turning to `CN(C)c1ccc(NC(=S)N2CCN(C(=O)c3ccccc3)CC2)cc1` [Compound 2, 4-Benzoyl-piperazine-1-carbothioic acid (4-dimethylamino-phenyl)-amide], the IC50 was 1 to 10 nM. The figure for `O=C(c1ccccc1)N1CCN(C(=S)Nc2ccc([N+](=O)[O-])cc2)CC1` [Compound 3, 4-Benzoyl-piperazine-1-carbothioic acid (4-nitro-phenyl)-amide] is 11 to 100 nM; for `O=C(c1ccccc1)N1CCN(C(=S)Nc2ccc(F)cc2)CC1` [Compound 4, 4-Benzoyl-piperazine-1-carbothioic acid (4-fluoro-phenyl)-amide] it is 101 to 1000 nM; for `O=C(c1ccccc1)N1CCN(C(=S)Nc2cccc3ccccc23)CC1` [Compound 5, 4-Benzoyl-piperazine-1-carbothioic acid naphthalen-1-ylamide] it is 11 to 100 nM.

As to `COC(=O)c1ccc(NC(=S)N2CCN(C(=O)c3ccccc3)CC2)cc1` [Compound 6, 4-[(4-Benzoyl-piperazine-1-carbothioyl)-amino]-benzoic acid methyl ester], the IC50 was 11 to 100 nM.

As for `Cc1ccc(NC(=S)N2CCN(C(=O)c3ccccc3)CC2)cc1` [Compound 7, 4-Benzoyl-piperazine-1-carbothioic acid p-tolylamide], the IC50 was 101 to 1000 nM. Regarding `CC(C)(C)c1ccc(NC(=S)N2CCN(C(=O)c3ccc(F)cc3)CC2)cc1` [Compound 8, 4-(4-Fluoro-benzoyl)-piperazine-1-carbothioic acid (4-tert-butyl-phenyl)-amide], the IC50 was in the range of 11 to 100 nM. `O=C(c1ccc(F)cc1)N1CCN(C(=S)Nc2ccc(Oc3ccccc3)cc2)CC1` [Compound 9, 4-(4-Fluoro-benzoyl)-piperazine-1-carbothioic acid (4-phenoxy-phenyl)-amide]: the concentration for half-maximal inhibition (IC50) was in the range of 101 to 1000 nM. The figure for `CN(C)c1ccc(NC(=S)N2CCN(C(=O)c3ccc(F)cc3)CC2)cc1` [Compound 10, 4-(4-Fluoro-benzoyl)-piperazine-1-carbothioic acid (4-dimethylamino-phenyl)-amide] is 101 to 1000 nM. The figure for `COC(=O)c1ccc(NC(=S)N2CCN(C(=O)c3ccc(F)cc3)CC2)cc1` [Compound 11, 4-{[4-(4-Fluoro-benzoyl)-piperazine-1-carbothioyl]-amino}-benzoic acid methyl ester] is 101 to 1000 nM; for `COc1ccc(NC(=S)N2CCN(C(=O)c3ccc(F)cc3)CC2)cc1` [Compound 12, 4-(4-Fluoro-benzoyl)-piperazine-1-carbothioic acid (4-methoxy-phenyl)-amide] it is 101 to 1000 nM.

In the case of `Cc1ccc(NC(=S)N2CCN(C(=O)c3ccc(F)cc3)CC2)cc1` [Compound 13, 4-(4-Fluoro-benzoyl)-piperazine-1-carbothioic acid p-tolylamide], the IC50 lay within 101 to 1000 nM. As to `CN(C)c1ccc(NC(=S)N2CCN(C(=O)c3cccnc3)CC2)cc1` [Compound 14, 4-(Pyridine-3-carbonyl)-piperazine-1-carbothioic acid (4-dimethylamino-phenyl)-amide], the IC50 lay within 101 to 1000 nM. With `O=C(c1cccc(F)n1)N1CCN(C(=S)Nc2ccc(Oc3ccccc3)cc2)CC1` [Compound 17, 4-(6-Fluoro-pyridine-2-carbonyl)-piperazine-1-carbothioic acid (4-phenoxy-phenyl)-amide], the IC50 lay in the range of 101 to 1000 nM. The figure for `O=C(c1cccc(F)n1)N1CCN(C(=S)Nc2ccc(OC(F)F)cc2)CC1` [Compound 18, 4-(6-Fluoro-pyridine-2-carbonyl)-piperazine-1-carbothioic acid (4-difluoromethoxy-phenyl)-amide] is 101 to 1000 nM.
